Assay [1] in a line: Clinical comparison of efficacy of DIM + βCD complex and crystalline DIM taken orally. It is filed as in vivo. The settings on record: equal dosages, all studied groups of patients. From the text:
Clinical studies have compared the efficacy of the water-soluble DIM + βCD complex and crystalline 3,3'-diindolylmethane in equal dosages when taken orally. […]

Assay [2] deals with pathological neoangiogenesis. The following applies: subcutaneously, 5 mg / kg, daily; cited from earlier work.

As to 3,3'-diindolylmethane [Crystal DIM], the clinical response result in assay [1] is reported as “absence of such”. With `c1ccc2c(Cc3c[nH]c4ccccc34)c[nH]c2c1` [DIM, 3,3'-diindolylmethane], the “inhibition of pathological neoangiogenesis” value in assay [2] is 74%.
